Numbers after ± are expanded uncertainties.
Columns and labels:
[1] = for speed of sound: 100 kPa, Frequency=3 MHz, Sing-around technique in a fixed-path interferometer; for speed of sound / viscosity / mass density: Liquid; for viscosity / mass density: 102 kPa; for viscosity: Concentric cylinders viscometry; for mass density: Vibrating tube method; for surface tension liquid-gas: Pendant drop shape
[2] = xn = mol fraction of the nth substance listed; conditions: Liquid; for speed of sound: 100 kPa, Frequency=3 MHz, Sing-around technique in a fixed-path interferometer; for viscosity / mass density: 102 kPa; for viscosity: Concentric cylinders viscometry; for mass density: Vibrating tube method

CCCCCCCCCCCCCCCCC [heptadecane]
[1]
Conditions | mass density [kg/m3] | speed of sound [m/s] | viscosity [mPa·s]
303.15 K | 771.02 ± 0.13 | 1330.9 ± 1.2 | 3.25 ± 0.02
313.15 K | 764.16 ± 0.13 | 1294.5 ± 1.1 | 2.61 ± 0.01
323.15 K | 757.3 ± 0.14 | 1258.8 ± 0.9 | 2.14 ± 0.01
333.15 K | 750.45 ± 0.14 | 1223.8 ± 0.8 | 1.79 ± 0.01
343.15 K | 743.7 ± 0.23 | – | 1.52 ± 0.01
353.15 K | 736.8 ± 0.2 | – | 1.3 ± 0.01
363.15 K | 729.8 ± 0.2 | – | 1.14 ± 0.01
373.15 K | 723 ± 0.2 | – | 1 ± 0.01

CCCCc1ccccc1 [butylbenzene] + CCCCCCCCCCCCCCCCC
[2], x1 = 1
Conditions | mass density [kg/m3] | speed of sound [m/s] | viscosity [mPa·s]
303.15 K | 852.49 ± 0.11 | 1314.9 ± 0.9 | 0.91 ± 0.007
313.15 K | 844.43 ± 0.11 | 1276.6 ± 0.9 | 0.801 ± 0.006
323.15 K | 836.34 ± 0.11 | 1238.7 ± 0.8 | 0.713 ± 0.006
333.15 K | 828.21 ± 0.12 | 1201.4 ± 0.8 | 0.636 ± 0.006
343.15 K | 819.9 ± 0.22 | – | 0.571 ± 0.006
353.15 K | 811.7 ± 0.2 | – | 0.516 ± 0.006
363.15 K | 803.4 ± 0.2 | – | 0.469 ± 0.005
373.15 K | 795 ± 0.2 | – | 0.43 ± 0.005

CCCCCCCCCC [decane]
[1]
Conditions | mass density [kg/m3] | speed of sound [m/s] | surface tension liquid-gas [mN/m] | viscosity [mPa·s]
293.15 K | 729.88 ± 0.17 | 1253.8 ± 1.4 | – | 0.922 ± 0.007
294.6 K | – | – | 23.8 ± 0.3 | –
303.15 K | 722.31 ± 0.18 | 1214.5 ± 1.3 | – | 0.794 ± 0.007
313.15 K | 714.69 ± 0.18 | 1175.7 ± 1.2 | – | 0.693 ± 0.006
323.15 K | 707.02 ± 0.18 | 1137.3 ± 1.2 | – | 0.615 ± 0.006
333.15 K | 699.29 ± 0.18 | 1099.3 ± 1.1 | – | 0.545 ± 0.006
343.15 K | 691.5 ± 0.3 | – | – | 0.486 ± 0.006
353.15 K | 683.6 ± 0.3 | – | – | 0.436 ± 0.005
363.15 K | 675.6 ± 0.3 | – | – | 0.396 ± 0.005
373.15 K | 667.5 ± 0.3 | – | – | 0.362 ± 0.005

CCCCCCCCCCCCCCCC [hexadecane] + CCCCc1ccccc1
[2], x2 = 0
Conditions | mass density [kg/m3] | speed of sound [m/s] | viscosity [mPa·s]
293.15 K | 773.52 ± 0.16 | 1357.3 ± 1.1 | 3.45 ± 0.02
303.15 K | 766.58 ± 0.17 | 1320 ± 1 | 2.74 ± 0.02
313.15 K | 759.66 ± 0.17 | 1283.4 ± 1 | 2.22 ± 0.01
323.15 K | 752.74 ± 0.17 | 1247.5 ± 1 | 1.84 ± 0.01
333.15 K | 745.82 ± 0.17 | 1212.1 ± 1 | 1.55 ± 0.01
343.15 K | 738.8 ± 0.3 | – | 1.32 ± 0.01
353.15 K | 731.9 ± 0.3 | – | 1.14 ± 0.01
363.15 K | 724.9 ± 0.3 | – | 1 ± 0.01
373.15 K | 717.8 ± 0.3 | – | 0.887 ± 0.007

CCCCCCCCCCCCCC [tetradecane] + CCCCc1ccccc1
[2], x2 = 0
Conditions | mass density [kg/m3] | speed of sound [m/s] | viscosity [mPa·s]
293.15 K | 762.71 ± 0.14 | 1331.2 ± 0.9 | 2.3 ± 0.01
303.15 K | 755.65 ± 0.14 | 1293.6 ± 0.9 | 1.88 ± 0.01
313.15 K | 748.58 ± 0.15 | 1256.4 ± 0.9 | 1.56 ± 0.01
323.15 K | 741.5 ± 0.15 | 1220.1 ± 0.9 | 1.32 ± 0.01
333.15 K | 734.4 ± 0.15 | 1184.1 ± 0.9 | 1.13 ± 0.008
343.15 K | 727.5 ± 0.2 | – | 0.98 ± 0.007
353.15 K | 720.3 ± 0.2 | – | 0.858 ± 0.007
363.15 K | 713.1 ± 0.3 | – | 0.76 ± 0.006
373.15 K | 705.8 ± 0.3 | – | 0.679 ± 0.006

CCCCCCCCCCCCCC [tetradecane]
[1]
Conditions | mass density [kg/m3] | speed of sound [m/s] | surface tension liquid-gas [mN/m] | viscosity [mPa·s]
293.15 K | 762.71 ± 0.14 | 1331.2 ± 0.9 | – | 2.3 ± 0.01
294.6 K | – | – | 26.2 ± 0.3 | –
303.15 K | 755.65 ± 0.14 | 1293.6 ± 0.9 | – | 1.88 ± 0.01
313.15 K | 748.58 ± 0.15 | 1256.4 ± 0.9 | – | 1.56 ± 0.01
323.15 K | 741.5 ± 0.15 | 1220.1 ± 0.9 | – | 1.32 ± 0.01
333.15 K | 734.4 ± 0.15 | 1184.1 ± 0.9 | – | 1.13 ± 0.008
343.15 K | 727.5 ± 0.2 | – | – | 0.98 ± 0.007
353.15 K | 720.3 ± 0.2 | – | – | 0.858 ± 0.007
363.15 K | 713.1 ± 0.3 | – | – | 0.76 ± 0.006
373.15 K | 705.8 ± 0.3 | – | – | 0.679 ± 0.006

CCCCCCCCCCCC [dodecane]
[1]
Conditions | mass density [kg/m3] | speed of sound [m/s] | surface tension liquid-gas [mN/m] | viscosity [mPa·s]
293.15 K | 748.79 ± 0.16 | 1297.9 ± 1 | – | 1.47 ± 0.01
294.1 K | – | – | 25.1 ± 0.3 | –
303.15 K | 741.54 ± 0.16 | 1259.6 ± 1 | – | 1.24 ± 0.01
313.15 K | 734.25 ± 0.16 | 1221.9 ± 1 | – | 1.06 ± 0.01
323.15 K | 726.94 ± 0.17 | 1184.7 ± 1 | – | 0.916 ± 0.007
333.15 K | 719.59 ± 0.17 | 1148 ± 1 | – | 0.801 ± 0.007
343.15 K | 712.2 ± 0.3 | – | – | 0.706 ± 0.006
353.15 K | 704.7 ± 0.3 | – | – | 0.627 ± 0.006
363.15 K | 697.2 ± 0.3 | – | – | 0.562 ± 0.006
373.15 K | 689.6 ± 0.3 | – | – | 0.506 ± 0.006

CCCCc1ccccc1 [butylbenzene]
[1]
Conditions | mass density [kg/m3] | speed of sound [m/s] | surface tension liquid-gas [mN/m] | viscosity [mPa·s]
293.15 K | 860.51 ± 0.11 | 1353.7 ± 0.9 | – | 1.05 ± 0.01
294.2 K | – | – | 29.1 ± 0.3 | –
303.15 K | 852.49 ± 0.11 | 1314.9 ± 0.9 | – | 0.91 ± 0.007
313.15 K | 844.43 ± 0.11 | 1276.6 ± 0.9 | – | 0.801 ± 0.006
323.15 K | 836.34 ± 0.11 | 1238.7 ± 0.8 | – | 0.713 ± 0.006
333.15 K | 828.21 ± 0.12 | 1201.4 ± 0.8 | – | 0.636 ± 0.006
343.15 K | 819.9 ± 0.2 | – | – | 0.571 ± 0.006
353.15 K | 811.7 ± 0.2 | – | – | 0.516 ± 0.006
363.15 K | 803.4 ± 0.2 | – | – | 0.469 ± 0.005
373.15 K | 795 ± 0.2 | – | – | 0.43 ± 0.005

CCCCCCCCCCCC [dodecane] + CCCCc1ccccc1
[2], x2 = 0
Conditions | mass density [kg/m3] | speed of sound [m/s] | viscosity [mPa·s]
293.15 K | 748.79 ± 0.16 | 1297.9 ± 1 | 1.47 ± 0.01
303.15 K | 741.54 ± 0.16 | 1259.6 ± 1 | 1.24 ± 0.01
313.15 K | 734.25 ± 0.16 | 1221.9 ± 1 | 1.06 ± 0.01
323.15 K | 726.94 ± 0.17 | 1184.7 ± 1 | 0.916 ± 0.007
333.15 K | 719.59 ± 0.17 | 1148 ± 1 | 0.801 ± 0.007
343.15 K | 712.2 ± 0.3 | – | 0.706 ± 0.006
353.15 K | 704.7 ± 0.3 | – | 0.627 ± 0.006
363.15 K | 697.2 ± 0.3 | – | 0.562 ± 0.006
373.15 K | 689.6 ± 0.3 | – | 0.506 ± 0.006

CCCCCCCCCCCCCCCC [hexadecane]
[1]
Conditions | mass density [kg/m3] | speed of sound [m/s] | surface tension liquid-gas [mN/m] | viscosity [mPa·s]
293.15 K | 773.52 ± 0.16 | 1357.3 ± 1.1 | – | 3.45 ± 0.02
294.8 K | – | – | 27.4 ± 0.3 | –
303.15 K | 766.58 ± 0.17 | 1320 ± 1 | – | 2.74 ± 0.02
313.15 K | 759.66 ± 0.17 | 1283.4 ± 1 | – | 2.22 ± 0.01
323.15 K | 752.74 ± 0.17 | 1247.5 ± 1 | – | 1.84 ± 0.01
333.15 K | 745.82 ± 0.17 | 1212.1 ± 1 | – | 1.55 ± 0.01
343.15 K | 738.8 ± 0.3 | – | – | 1.32 ± 0.01
353.15 K | 731.9 ± 0.3 | – | – | 1.14 ± 0.01
363.15 K | 724.9 ± 0.3 | – | – | 1 ± 0.01
373.15 K | 717.8 ± 0.3 | – | – | 0.887 ± 0.007

CCCCCCCCCC [decane] + CCCCc1ccccc1
[2], x2 = 0
Conditions | mass density [kg/m3] | speed of sound [m/s] | viscosity [mPa·s]
293.15 K | 729.88 ± 0.17 | 1253.8 ± 1.4 | 0.922 ± 0.007
303.15 K | 722.31 ± 0.18 | 1214.5 ± 1.3 | 0.794 ± 0.007
313.15 K | 714.69 ± 0.18 | 1175.7 ± 1.2 | 0.693 ± 0.006
323.15 K | 707.02 ± 0.18 | 1137.3 ± 1.2 | 0.615 ± 0.006
333.15 K | 699.29 ± 0.18 | 1099.3 ± 1.1 | 0.545 ± 0.006
343.15 K | 691.5 ± 0.3 | – | 0.486 ± 0.006
353.15 K | 683.6 ± 0.3 | – | 0.436 ± 0.005
363.15 K | 675.6 ± 0.3 | – | 0.396 ± 0.005
373.15 K | 667.5 ± 0.3 | – | 0.362 ± 0.005

Reference: the NIST ThermoML archive (doi:10.1021/acs.jced.6b00542)
